Consider 6 compounds from article PMC5962729 (Frontiers in Pharmacology, 2018).

Where two headings read alike, the source gives them in different places.

Data set [1] can be described thus: Pharmacokinetic study of YCHD components and phase II metabolites in normal rats (UHPLC-MS/MS, sulfatase enzymolysis). The data set is classed as in vivo, rat. The conditions noted are these: for Tmax / Cmax / MRT inf / half-life / CL/F / Vd/F: rat; for MRT inf: read-out: MRT (0-∞) (converted); for half-life: read-out: t1/2z; for CL/F: read-out: CLz/F; for Vd/F: read-out: Vz/F. How it is done:
To explore the pharmacokinetic properties of YCHD following intragastric administration in rats, a rapid and sensitive method involving the use of UHPLC-MS/MS (Agilent 6460 series, Agilent Technologies, Santa Clara, CA, United States) was developed and validated for the simultaneous quantification of 10 active components of rat plasma. The quantification was conducted in ESI negative ionization mode, and the mass spectrometry conditions were as follows: capillary voltage, 3500 V; gas flow, 12 L/min; nebulizer, 40 psi; gas temperature, 350°C; and delta EMV (-), 400. A 5 μL extraction sample was injected into the column (Agilent SB-C18 column, 2.1 mm × 50 mm, 1.8 μm) and eluted at 0.4 mL/min with a gradient elution of water (with 0.4% v/v formic acid) (A) and acetonitrile (B) (0–3 min, 5–60% B; 3–5 min, 60–90% B; 5–5.1 min, 90–5% B; and re-equilibration for 3 min).
To each 50 μL plasma sample, 10 μL of internal standard solution (paeoniflorin, 1000 ng/mL) and 300 μL of a mixed solution of methanol and acetonitrile (v/v, 1:1; containing 1% formic acid) were added. Subsequently, the solution was vortex mixed for 5 min. After centrifugation at 15,000 rpm for 5 min, the supernatant was transferred completely into a tube, before being evaporated under N2 at 40°C. The residue was then dissolved in 50 μL of 50% methanol–water (v/v, 1:1) through vortexing for 5 min, after centrifugation at 15,000 rpm for 10 min. Finally, 5 μL of the supernatant sample was injected into the UHPLC-MS/MS system for analysis.
The rats were randomly divided into two groups (n = 5 for each group). […] After 24 h, the two groups of rats received a single oral dose of YCHD (12 g/kg). Blood was collected in heparinized tubes at 5, 15, 30, 45, 60, 120, 240, 360, 480, 720, and 1440 min after administration. The blood samples were centrifuged at 4000 rpm for 10 min, and the supernatant plasma was harvested. Plasma samples (50 μL) were immediately processed as outlined in Section “Chromatographic and Mass Spectrometry Conditions.”
Additional plasma samples (50 μL) were enzymatically hydrolyzed with 50 μL of enzyme solution (65.86 mg of sulfatase, dissolved in 2 mL of sodium acetate buffer, pH 5.0) for phase II metabolite quantification, in accordance with our previous study ([Ding et al., 2012]). After being vortex mixed for 5 min, the mixture was incubated at 37°C for 30 min and then returned to room temperature. Subsequently, the samples were processed as outlined in Section “Chromatographic and Mass Spectrometry Conditions” for UHPLC-MS/MS analysis. During routine analysis, each analytical run included six blank plasma samples, a set of calibration samples, a set of QC samples, and unknowns.
All data are presented as mean ± SD. A one-way analysis of variance was used to compare data between two groups using SPSS (Version 21.0). The differences were considered to be statistically significant when p < 0.05 and highly significant when p < 0.01 or p < 0.001. Pharmacokinetic data analysis was performed using DAS 2.1.1 software (Mathematical Pharmacology Professional Committee of China, Shanghai, China).
After sulfatase-aided enzymolysis, all the phase II metabolites could transform into their prototypes, including rhein, emodin, genipin, and capillarisin. The specific contents of the phase II metabolites of these components were detected indirectly by evaluating the content difference of their prototypes in samples after enzymolysis and before enzymolysis
CG = Ca −[MG × (CGG/MGG + CGe/MGe)]
Ca, CGG, and CGe represent the concentration of genipin, genipin-1-β-D-gentiobioside, and geniposide after enzymolysis of sulfatase, respectively. MG, MGG-, and MGe represent the mass of genipin, genipin-1-β-D-gentiobioside, and geniposide, respectively. The pharmacokinetic curves of phase II metabolites are illustrated in Figure 4B.

A short description of data set [2]: Identification of components and metabolites of YCHD in rat plasma, bile, urine and feces (UHPLC/Q-TOF-MS). It counts as in vivo. The conditions noted are these: rats, oral YCHD 12 g/kg, urine, feces. How it is done: After centrifuging at 4000 rpm for 10 min, supernatant plasma was harvested into heparinized tubes and then stored at -20°C for preservation. The rats in the second group (n = 6) were kept individually in metabolic cages to collect urine and feces. […] Subsequently, the rats were orally administered a single dose of YCHD (12 g/kg of body weight). […] For the third group of rats (n = 6), bile duct intubation was implemented, and blank bile samples were collected before administration. After the administration of YCHD at 12 g/kg of body weight, the drug-containing bile samples were collected.
Plasma, bile, and urine samples (200 μL each) were separately precipitated with six times of methanol–acetonitrile mixed solution (v/v, 1:1; containing 1% formic acid). After being vortex mixed for 5 min and centrifuged at 15,000 rpm for 5 min at 4°C, the supernatant was separated into another clean tube and dried under a gentle stream of nitrogen at 45°C. Subsequently, the residue was reconstituted in 100 μL of 50% methanol–water (v/v) and then vortex mixed for 10 min. After another round of centrifugation at 15,000 rpm for 5 min at 4°C, 5 μL of the supernatant was analyzed by UHPLC-MS/MS. A 0.5 g sample of naturally dried feces was supplemented with 2 mL of 80% methanol–water (v/v) and then ultrasonically extracted for 30 min at 4°C. After being centrifuged at 15,000 rpm for 10 min, the supernatant was dried under a gentle stream of nitrogen at 45°C. Finally, the residue was reconstituted in 1 mL of 50% methanol–water (v/v) and then vortex mixed for 10 min. After another round of centrifugation at 15,000 rpm for 5 min at 4°C, 5 μL of the supernatant sample was injected into the UHPLC-MS/MS system for analysis.
Separations were conducted on an Agilent SB-C18 column (2.1 mm × 50 mm, 1.8 μm) of a UHPLC/Q-TOF-MS system (Waters, Corp., Milford, MA, United States) maintained at 40°C.
A Synapt G2 quadrupole time-of-flight (Q/TOF) MS/MS system (Waters, Corp., Manchester, United Kingdom) equipped with an electrospray ionization (ESI) interface was operated in negative ionization mode and controlled by MassLynx software (Version 4.1). The optimized conditions for maximum detection of metabolites were as follows: the capillary voltage was set at 3.0 kV, extraction cone voltage was set at 10 and 15 V, source temperature was maintained at 120°C, and desolvation temperature was maintained at 450°C. […] An MS^E approach using a dynamic ramp of collision energy was also applied at two (low and high collision energies) scan functions. The following parameters were set: Function 1 (low energy)—mass scan range, 100–1000; scan time, 0.25 s; interscan delay, 0.05 s; collision energy, 4 V. Function 2 (high energy)—mass scan range, 100–1000; scan time, 0.2 s; interscan delay, 0.05 s; collision energy ramp, 10–30 V. Data were acquired using Masslynx^TM (Version 4.1. Waters, Crop., Milford, MA, United States), and Metabolynx^TM (Waters, Crop., Milford, MA, United States) was applied for post-acquisition data processing.

Setting [3] is: Control group (normal rats), single oral YCHD 12 g/kg, plasma.
[4] abbreviates: Sprague Dawley, plasma, po, 12 g/kg, in normal and cholestatic rats after oral administration of YCHD.
[5] abbreviates: plasma, po, 12 g/kg, Control group (normal rats), single oral YCHD 12 g/kg, plasma.
[6] abbreviates: in vivo, Control group (normal rats), single oral YCHD 12 g/kg, plasma.
Where [7] appears, read: Sprague Dawley, Control group (normal rats), single oral YCHD 12 g/kg, plasma.
[8] abbreviates: Sprague Dawley, in vivo, Control group (normal rats), single oral YCHD 12 g/kg, plasma.

In the case of `CC(=O)c1ccc(O)cc1` [4-hydroxyacetophenone, 4-Hydroxyacetophenone], in data set [1] (setting [3]), the “AUC(0-∞)” value was 192358.2 ± 102858.3 µg·min/L, the Ka worked out at 406.1 ± 333.9 min⁻¹, the highest concentration (Cmax) came to 1580 ± 133 ng/mL and the MRT inf is 4.82 h. The half-life in data set [1] (setting [3]) was 13.8 ± 13.6 h. In data set [1] (setting [4]), the Tmax is at most 0.45 h. In addition, the Tmax in data set [1] (setting [5]) is 0.25 h. In data set [2], the “Source (biological samples in which the compound was identified)” value is listed as “Plasma, bile, urine, feces”.

For `COC(=O)C1=CO[C@@H](O[C@@H]2O[C@H](CO)[C@@H](O)[C@H](O)[C@H]2O)[C@@H]2C(CO)=CC[C@H]12` [Geniposide], in data set [1] (setting [3]), the “AUC(0-∞)” value was 384279.8 ± 184237.0 µg·min/L and the Ka was determined as 702.9 ± 413.6 min⁻¹. In addition, the Tmax in data set [1] (Sprague Dawley, in vivo, 12 g/kg, in normal and cholestatic rats after oral administration of YCHD) was at most 0.45 h. In data set [1] (setting [6]), the peak concentration (Cmax) came to 524 ± 59.4 ng/mL, the time to peak (Tmax) was 0.3 h, the CL/F was found to be 122 ± 22 mL/min/kg and the MRT inf is 3.36 h. Further, in data set [1] (setting [6]), the Vd/F turned out to be 21.1 ± 12 L/kg and the half-life is 1.9 ± 0.765 h. In addition, the “Source (biological samples in which the compound was identified)” value in data set [2] is “Plasma, bile, urine, feces”.

In the case of `O=C(O)C1=CO[C@@H](O[C@@H]2O[C@H](CO)[C@@H](O)[C@H](O)[C@H]2O)[C@@H]2C(CO)=CC[C@H]12` [Geniposidic acid], in data set [1] (setting [3]), the “AUC(0-∞)” value worked out at 1374849.8 ± 734718.1 µg·min/L, the Ka turned out to be 11255.3 ± 11024.4 min⁻¹, the peak concentration (Cmax) is 449 ± 34.2 ng/mL and the CL/F is 30 ± 4 mL/min/kg. In addition, the MRT inf in data set [1] (setting [3]) is 5.93 h. For the same compound, in data set [1] (setting [7]), the Vd/F was 8.6 ± 3.2 L/kg and the half-life stood at 3.23 ± 0.755 h. Moreover, in data set [1] (setting [6]), the Tmax was 4.4 h. Further, the “Source (biological samples in which the compound was identified)” value in data set [2] is recorded as “Plasma, urine, feces”.

For the compound `O=C(O)c1cc(O)c2c(c1)C(=O)c1cccc(O)c1C2=O` [Rhein], in data set [1] (setting [3]), the “AUC(0-∞)” value worked out at 874792.3 ± 503744.0 µg·min/L, the Ka was 4443.6 ± 454.1 min⁻¹, the peak concentration (Cmax) is 3040 ± 397 ng/mL and the CL/F worked out at 41 ± 6 mL/min/kg. In data set [1] (setting [3]), the MRT inf was 2.01 h, the Vd/F came to 3.79 ± 0.53 L/kg and the half-life is 1.06 ± 0.00833 h. Also, in data set [1] (setting [4]), the Tmax was at most 0.45 h. Besides, in data set [1] (setting [5]), the Tmax was 0.25 h. For the same compound, in data set [2], the “Source (biological samples in which the compound was identified)” value is on record as “Plasma, bile, urine, feces”.

For the compound `COC(=O)C1=COC(OC2OC(CO)C(O)C(O)C2O)C2C(CO)=CC(O)C12` (centres unmarked) [Scandoside methyl ester], in data set [1] (setting [3]), the “AUC(0-∞)” value stood at 233687.2 ± 127559.1 µg·min/L and the Ka was found to be 477.5 ± 133.9 min⁻¹. Also, in data set [1] (setting [8]), the Cmax stood at 127 ± 8.9 ng/mL, the Tmax is 0.35 h, the CL/F was 184 ± 33 mL/min/kg and the MRT inf is 6.08 h. Also, in data set [1] (setting [6]), the Vd/F was found to be 62 ± 30.8 L/kg and the half-life amounted to 3.82 ± 1.76 h. For the same compound, the “Source (biological samples in which the compound was identified)” value in data set [2] is given as “Plasma, bile, urine, feces”.

For the compound `COC(=O)C1=CO[C@@H](O[C@@H]2O[C@H](CO[C@@H]3O[C@H](CO)[C@@H](O)[C@H](O)[C@H]3O)[C@@H](O)[C@H](O)[C@H]2O)[C@@H]2C(CO)=CC[C@H]12` [genipin-1-β-D-gentiobiodide, Genipin-1-β-D-gentiobiodide], in data set [1] (setting [3]), the “AUC(0-∞)” value came out at 38557.0 ± 20175.1 µg·min/L, the Ka was 95.5 ± 16.2 min⁻¹, the Cmax was 106 ± 3.9 ng/mL and the CL/F came to 1040 ± 56 mL/min/kg. For the same compound, in data set [1] (setting [3]), the MRT inf is 2.13 h. Moreover, in data set [1] (setting [4]), the Tmax is at most 0.45 h. Further, in data set [1] (setting [7]), the Vd/F is 170 ± 52.3 L/kg and the half-life is 1.93 ± 0.538 h. The time of peak concentration (Tmax) in data set [1] (setting [5]) was 0.35 h. Besides, the “Source (biological samples in which the compound was identified)” value in data set [2] was “Bile, urine”.
